A short description of data set [1]: Drug concentration in plasma of Sprague-Dawley rat at 15 mg/kg, IG measured after 0.167 hrs. The settings on record: po. It counts as ADME, organism-based.
Data set [2] deals with Mus musculus. The data set is described as follows: In vivo antiinflammatory activity in scopolamine induced cognitive impaired ICR mouse assessed as decrease in Iba1 levels in cortex. It counts as functional, organism-based.
The nature of data set [3]: Cmax in Sprague-Dawley rat at 15 mg/kg, IG. It counts as ADME, organism-based. Also noted: dose 15 mg/kg, route ig. The settings on record: in vivo, po.
Data set [4] relates to BV-2. The data set is described as follows: Antioxidant activity in H2O2 treated mouse BV-2 cells assessed as nuclear translocation of NRF2 at 5 to 20 uM by immunofluorescence analysis. It counts as functional, cell-based. The settings on record: dose 5-20 µM.
Data set [5] in a line: Acute toxicity in mouse assessed as histopathological change in liver at 2000 mg/kg, IG administered as single dose measured after 14 days measured by H and E staining analysis. The format is organism-based. The settings on record: in vivo, po, 336 h, time 14 day.
The subject of data set [6] is BV-2. The data set can be described thus: Effect of amyloid beta (1 to 42) indued apoptosis in mouse BV-2 cells assessed as late apoptotic cells at 10 uM measured by propidium iodide staining based flow cytometric analysis (reference value: 6.88%). It counts as functional. In general terms: A flow cytometer gives signals particle by particle.
Data set [7] concerns BV-2. The data set is described as follows: Effect on H2O2 induced reactive oxygen species in mouse BV-2 cells assessed as reduction of ROS generation at 20 uM by fluorescence microscopic analysis relative to control. It counts as functional. Also noted: scale not given: the % may be the effect or the level left.
Data set [8] has as its system BV-2. The data set is described as follows: Neuroprotective activity against amyloid beta (1 to 42) induced neurotoxicity in mouse BV-2 cells assessed as survival of cells treated for 24 hrs. The format is functional, cell-based. The settings on record: dose 2.5-10 µM.
Data set [9] in a line: Drug concentration in plasma of Sprague-Dawley rat at 15 mg/kg, IG measured after 0.083 hrs. The format is ADME, organism-based. The settings on record: po.
The nature of data set [10]: Ratio of drug concentration in hippocampus to plasma of Sprague-Dawley rat at 15 mg/kg, IG measured after 0.25 hrs. It counts as ADME, organism-based. The settings on record: po.
The test system of data set [11] is Mus musculus. The data set is described as follows: Antioxidant activity in scopolamine induced cognitive impaired mouse assessed as decrease of MDA level in cortex at 20 mg/kg. The format is functional, organism-based.
The target of data set [12] is Amyloid-beta precursor protein (Mus musculus) (UniProt P12023). The data set can be described thus: Inhibition of amyloid beta (1 to 42) in mouse BV-2 cells by measuring scavenging effect at 2.5 to 10 uM by ThT fluorescence based immunoblot analysis. The settings on record: dose 2.5-10 µM. The format is cell-based.
Data set [13] can be described thus: Antioxidant activity by measuring oxygen radical absorbance capacity-fluorescein values. The format is functional.
In data set [14] the test system is BV-2. The data set is described as follows: Antiinflammatory activity in LPS induced mouse BV-2 cells decrease in release of […] at 5 uM by […] (reference value: 100%). The format is functional. (Formazan colour is commonly taken as a measure of viable cells.)
Data set [15] can be described thus: Ratio of drug concentration in hippocampus to plasma of Sprague-Dawley rat at 15 mg/kg, IG measured after 2 hrs. It counts as ADME, organism-based. The settings on record: po.
For data set [16], the system named is BV-2. The data set can be described thus: Effect of amyloid beta (1 to 42) indued apoptosis in mouse BV-2 cells assessed as early apoptotic cells at 5 uM measured by propidium iodide staining based flow cytometric analysis (reference value: 26.12%). The format is functional.
Data set [17] in a line: Metal chelating activity assessed as compound-Cu2+ complex formation by measuring shift at 1:1 at 50 uM in PBS buffer 7.4 by UV-vis spectrometric analysis.
Data set [18] deals with Mus musculus. The data set is described as follows: In vivo effect on HO-1 expression in scopolamine induced cognitive impaired mouse assessed as reversal of NRF2 signalling in hippocampus treated at 20 mg/kg by immunofluorescence analysis. The format is functional, organism-based.
The target of data set [19] is Amyloid-beta precursor protein (Homo sapiens, UniProt P05067). The data set can be described thus: Inhibition of amyloid beta (1 to 42) (unknown origin) self aggregation assessed as decrease in number of amyloid beta fibrils at 50 uM for 24 hrs.
Data set [20] deals with Mus musculus. The data set is described as follows: Anti alzheimer activity in scopolamine induced anxiety in ICR mouse assessed as improved memory function pretreated with scopolamine at 3 mg/kg, ip for 31 days followed by compound addition at 20 mg/kg, po at day 7 to 31 by morris water maze test. The settings on record: time 25.0 day. It counts as functional, organism-based.

The subject of data set [21] is Mus musculus. The data set is described as follows: Cognitive enhancement in scopolamine induced ICR alzheimer's disease mouse assessed as gain in body weight pretreated with scopolamine at 3 mg/kg, ip for 31 days followed by compound addition at 20 mg/kg, po at day 7 to 31. The format is functional, organism-based. The settings on record: time 25.0 day.
The subject of data set [22] is Mus musculus. The data set is described as follows: Neuroprotective effect in scopolamine induced cognitively impaired mouse assessed as decrease in neuronal damage in CA1 region at hippocampus at 20 mg/kg by immunofluorescence staining analysis. The format is functional, organism-based.
Data set [23] concerns BV-2. The data set can be described thus: Effect of amyloid beta (1 to 42) indued apoptosis in mouse BV-2 cells assessed as early apoptotic cells at 2.5 uM measured by propidium iodide staining based flow cytometric analysis (reference value: 26.12%). The format is functional.

One may read the Cmax as the highest concentration seen after dosing. As usually defined, the Kp is the ratio of the level in a tissue or fluid to that in plasma or blood.

SMILES strings stand for the structures. Activity calls are given as the source filed them. The calls are words filed in the database; no cut-off is given here.

Chain of Amyloid-beta precursor protein (Mus musculus) (P12023 whole entry): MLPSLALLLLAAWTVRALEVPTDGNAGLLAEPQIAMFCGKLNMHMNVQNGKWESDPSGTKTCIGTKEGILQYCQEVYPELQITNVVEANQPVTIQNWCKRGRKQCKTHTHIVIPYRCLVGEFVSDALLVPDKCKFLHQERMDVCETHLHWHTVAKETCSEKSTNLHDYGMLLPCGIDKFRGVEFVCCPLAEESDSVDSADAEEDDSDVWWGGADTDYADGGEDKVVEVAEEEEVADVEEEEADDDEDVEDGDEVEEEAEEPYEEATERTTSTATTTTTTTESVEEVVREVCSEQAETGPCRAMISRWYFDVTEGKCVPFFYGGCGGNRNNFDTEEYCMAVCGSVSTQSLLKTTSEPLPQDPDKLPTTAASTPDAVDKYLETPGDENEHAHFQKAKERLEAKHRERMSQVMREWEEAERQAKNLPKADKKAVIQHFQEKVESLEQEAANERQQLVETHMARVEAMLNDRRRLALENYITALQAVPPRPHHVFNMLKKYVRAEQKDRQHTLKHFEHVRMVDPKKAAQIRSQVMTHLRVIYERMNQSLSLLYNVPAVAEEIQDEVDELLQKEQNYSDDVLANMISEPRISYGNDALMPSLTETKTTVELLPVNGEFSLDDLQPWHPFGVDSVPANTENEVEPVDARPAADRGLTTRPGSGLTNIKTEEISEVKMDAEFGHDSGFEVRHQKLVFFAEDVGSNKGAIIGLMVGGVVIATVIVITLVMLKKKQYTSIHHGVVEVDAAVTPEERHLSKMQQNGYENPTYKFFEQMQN
Chain of Amyloid-beta precursor protein (P05067 whole entry): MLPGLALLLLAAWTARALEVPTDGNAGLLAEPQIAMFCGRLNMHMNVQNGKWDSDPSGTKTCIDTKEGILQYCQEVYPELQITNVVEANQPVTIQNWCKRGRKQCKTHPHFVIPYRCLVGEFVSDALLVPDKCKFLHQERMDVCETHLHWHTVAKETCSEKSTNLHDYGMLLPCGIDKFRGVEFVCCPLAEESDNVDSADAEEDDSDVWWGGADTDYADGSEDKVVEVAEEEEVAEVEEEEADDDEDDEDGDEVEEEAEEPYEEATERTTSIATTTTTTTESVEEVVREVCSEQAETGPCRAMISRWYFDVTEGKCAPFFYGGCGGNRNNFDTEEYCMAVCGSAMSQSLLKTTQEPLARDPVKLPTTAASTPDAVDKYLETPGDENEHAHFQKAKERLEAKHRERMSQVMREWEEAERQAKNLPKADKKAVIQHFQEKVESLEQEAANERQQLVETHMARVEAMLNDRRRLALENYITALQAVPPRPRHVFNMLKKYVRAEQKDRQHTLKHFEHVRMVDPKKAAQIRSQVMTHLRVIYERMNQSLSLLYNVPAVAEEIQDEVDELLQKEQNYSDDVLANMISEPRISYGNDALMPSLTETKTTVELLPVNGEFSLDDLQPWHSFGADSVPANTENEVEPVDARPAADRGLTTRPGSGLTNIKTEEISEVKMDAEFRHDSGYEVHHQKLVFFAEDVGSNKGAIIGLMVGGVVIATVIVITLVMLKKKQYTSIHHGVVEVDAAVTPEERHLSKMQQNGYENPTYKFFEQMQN

Take `O=c1ccoc(/C=C/c2ccc(O)c(O)c2)c1O`: the concentration at 0.167 h in [1] is 22.2 ng/mL. For the same compound, the outcome in data set [2], in data set [4], in data set [11], in [17], in data set [18] and in [20] was Active. For the same compound, the result in data set [21] and in [22] was Active. In [3], the Cmax amounted to 14.4 ng/mL. In addition, the Activity entry is “Non-Toxic” in data set [5]; 6.82% in data set [6]; 45.48% in data set [7]; “Dose-Dependent Effect” in data set [8]; 8.32% in data set [16]; 13.4% in [23]. Further, the concentration at 0.083 h in data set [9] is 18.5 ng/mL. Besides, the Kp at 0.25 h in [10] was found to be 0.5. Also, the inhibition entry in [12] and in [19] was “Active” in each case. For the same compound, the Activity index in data set [13] came out at 2.65. In addition, the “Nitric oxide release (% of LPS control)” value in data set [14] is 86.32%. The Kp at 2 h in data set [15] was 7.12.

The record behind these values is ChEMBL document CHEMBL5325414, “Novel neuroprotective pyromeconic acid derivatives with concurrent anti-Aβ deposition, anti-inflammatory, and anti-oxidation properties for treatment of Alzheimer's disease” (Eur J Med Chem, 2023).
